From ChEMBL document CHEMBL1147920, “Identification of a novel class of succinyl-nitrile-based Cathepsin S inhibitors” (Bioorg Med Chem Lett, 2007)

Target: Cathepsin S (Homo sapiens, UniProt P25774)
Assay: Inhibition of human cathepsin S

Chain of Cathepsin S (P25774 whole entry): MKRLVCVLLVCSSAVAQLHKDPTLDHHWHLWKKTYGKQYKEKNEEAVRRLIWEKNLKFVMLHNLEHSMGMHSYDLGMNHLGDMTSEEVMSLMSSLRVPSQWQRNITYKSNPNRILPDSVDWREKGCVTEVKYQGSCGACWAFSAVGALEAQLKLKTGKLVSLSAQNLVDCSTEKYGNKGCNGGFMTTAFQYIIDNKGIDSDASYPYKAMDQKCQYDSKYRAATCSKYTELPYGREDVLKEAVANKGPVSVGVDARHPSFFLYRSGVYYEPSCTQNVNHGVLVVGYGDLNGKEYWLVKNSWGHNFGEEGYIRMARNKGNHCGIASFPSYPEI

IC50 | Kd | SMILES
0.042 µM | 0.0231 µM | N#C[C@@]1(NC(=O)[C@@H](CC(=O)N2CCOCC2)CC2Cc3ccccc3C2)CCN(C2CCCCC2)C1
0.062 µM | 0.00486 µM | N#C[C@H](COCc1ccc(Cl)cc1)NC(=O)[C@@H](CC(=O)N1CCOCC1)CC1CCCCC1
0.171 µM | 0.025 µM | N#C[C@H](CCc1ccccc1)NC(=O)[C@@H](CC(=O)N1CCOCC1)CC1CCCCC1
0.207 µM | 0.052 µM | N#CC1(NC(=O)[C@@H](CC(=O)N2CCOCC2)CC2CCCCC2)CCN(Cc2ccccc2)CC1
0.251 µM | 0.177 µM | CN1CCC(C#N)(NC(=O)[C@@H](CC(=O)N2CCOCC2)CC2CCCCC2)CC1
0.023 µM | 0.0178 µM | N#C[C@@]1(NC(=O)[C@@H](CC(=O)N2CCOCC2)CC2CCCCC2)CCN(C2CCCCC2)C1
0.041 µM | 0.0138 µM | N#C[C@]1(NC(=O)[C@@H](CC(=O)N2CCOCC2)CC2CCCCC2)CCN(CC2CCCCC2)C1
0.029 µM | 0.00364 µM | N#C[C@]1(NC(=O)[C@@H](CC(=O)N2CCOCC2)CC2CCCCC2)CCN(Cc2ccccc2)C1
0.0223 µM | 0.0152 µM | N#C[C@@]1(NC(=O)[C@@H](CC(=O)N2CCOCC2)CC2CCCCC2)CCN(CCc2ccccc2)C1
0.014 µM | 0.0138 µM | CC1CCC(C[C@H](CC(=O)N2CCOCC2)C(=O)N[C@]2(C#N)CCN(C3CCCCC3)C2)CC1 (some centres undefined)
0.0019 µM | 0.0054 µM | N#C[C@@]1(NC(=O)[C@@H](CC(=O)N2CCOCC2)CC2CCc3ccccc3C2)CCN(C2CCCCC2)C1 (some centres undefined)
3.14 µM | – | N#C[C@@]1(NC(=O)[C@@H](CC(=O)N2CCOCC2)CC2CCC(c3ccccc3)CC2)CCN(C2CCCCC2)C1 (some centres undefined)
0.039 µM | 0.0533 µM | CC(C)CN1CC[C@@](C#N)(NC(=O)[C@@H](CC(=O)N2CCOCC2)CC2CCCCC2)C1
0.075 µM | – | N#C[C@@]1(NC(=O)[C@@H](CC(=O)N2CCOCC2)CC2CCCCC2)CCN(C2CCCC2)C1
0.022 µM | 0.02 µM | N#C[C@@]1(NC(=O)[C@@H](CC(=O)N2CCOCC2)CC2CCCCC2)CCN(CC2CC2)C1
0.037 µM | 0.00439 µM | N#C[C@H](COCc1ccccc1)NC(=O)[C@@H](CC(=O)N1CCOCC1)CC1CCCCC1
0.135 µM | 0.012 µM | N#CC1(NC(=O)[C@@H](CC(=O)N2CCOCC2)CC2CCCCC2)CC1
0.155 µM | 0.161 µM | CN1CC[C@@](C#N)(NC(=O)[C@@H](CC(=O)N2CCOCC2)CC2CCCCC2)C1
0.066 µM | 0.0606 µM | CC(C)N1CC[C@@](C#N)(NC(=O)[C@@H](CC(=O)N2CCOCC2)CC2CCCCC2)C1
0.063 µM | 0.059 µM | N#C[C@@]1(NC(=O)[C@@H](CC(=O)N2CCOCC2)CC2CCCC2)CCN(C2CCCCC2)C1
0.047 µM | 0.0773 µM | CC1(C[C@H](CC(=O)N2CCOCC2)C(=O)N[C@]2(C#N)CCN(C3CCCCC3)C2)CCCCC1
0.141 µM | 0.123 µM | N#C[C@@]1(NC(=O)[C@@H](CC(=O)N2CCOCC2)CC2CCCCC2)CCNC1
0.023 µM | 0.011 µM | N#C[C@@]1(NC(=O)[C@@H](CC(=O)N2CCOCC2)CC2CCCCC2)CCN(C2CCCCCC2)C1
